From PubChem BioAssay (NCI) come the findings set out here.

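Dose response: 5 concentrations. Exposure: 48 h. Format: 96-well plates. Endpoint: linear interpolation; highest concentration if not reached. TGI marks complete inhibition of growth.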

Some test systems named below: A498 renal; A549 NSCLC; CCRF-CEM leukemia; HCC-2998 colon; HCT-116 colon; HOP-62 NSCLC; MDA-N; MOLT-4 leukemia; OVCAR-3 ovarian; OVCAR-4 ovarian; OVCAR-5 ovarian; RPMI-8226 leukemia; SF-268 CNS; SK-MEL-5 melanoma; SK-OV-3 ovarian; SNB-75 CNS; SW-620 colon; TK-10 renal; UACC-257 melanoma; MALME-3M melanoma.
Holding throughout (assay): DTP human tumour cell line panel, 48 h

Broadly, the TGI is the concentration giving total growth inhibition. A higher TGI goes with less potent growth arrest. Take `Cc1cc2c3c(ccc4ncc(c43)CN2c2ccc(NS(C)(=O)=O)cc2)[nH]1`: the total growth inhibition concentration (TGI) in the experiment with A498 renal is over 100 µM; with A549 NSCLC, 88.5 µM; in the experiment with CCRF-CEM leukemia, over 100 µM; in the experiment with HCC-2998 colon it was over 100 µM; in the experiment on HCT-116 colon, 44.1 µM; in the experiment with HOP-62 NSCLC it was 46.1 µM. The TGI in the experiment with MDA-N was over 100 µM; in the experiment on MOLT-4 leukemia, over 100 µM; in the experiment on OVCAR-3 ovarian, 81.5 µM; with OVCAR-4 ovarian it was over 100 µM; in the experiment with OVCAR-5 ovarian, over 100 µM; with RPMI-8226 leukemia it was 55.3 µM. Besides, the concentration for total growth inhibition (TGI) with SF-268 CNS was 51.5 µM; in the experiment with SK-MEL-5 melanoma, over 100 µM; in the experiment with SK-OV-3 ovarian it was 97.5 µM; with SNB-75 CNS, 44.3 µM; in the experiment on SW-620 colon, over 100 µM; with TK-10 renal it was 73.1 µM. In the experiment on UACC-257 melanoma, the total growth inhibition concentration (TGI) was over 100 µM.

For `CC1C(c2ccccc2O)c2cc3c(cc2OC1N1CCCC1)OCO3` (stereo not drawn), the total growth inhibition concentration (TGI) in the experiment on A498 renal was 60.7 µM; in the experiment on A549 NSCLC, over 100 µM; with CCRF-CEM leukemia, over 100 µM; with HCC-2998 colon, over 100 µM; in the experiment on HCT-116 colon it was 43.1 µM; in the experiment on HOP-62 NSCLC it was 49.8 µM. Further, the TGI was 80.2 µM with MALME-3M melanoma; 46.8 µM in the experiment on MDA-N; 65 µM with MOLT-4 leukemia; 56.6 µM in the experiment with OVCAR-3 ovarian; over 100 µM with OVCAR-5 ovarian; 57.5 µM in the experiment on RPMI-8226 leukemia. In addition, the total growth inhibition concentration (TGI) is over 100 µM in the experiment with SF-268 CNS; over 100 µM in the experiment with SK-MEL-5 melanoma; over 100 µM in the experiment with SK-OV-3 ovarian; 88 µM in the experiment on SNB-75 CNS; 44.4 µM in the experiment on SW-620 colon; over 100 µM in the experiment with TK-10 renal. Further, the TGI in the experiment on UACC-257 melanoma is 92.5 µM.

For the compound `CC(=O)Oc1ccc(-c2cc3ccccc3oc2=O)cc1OC(C)=O`, the TGI in the experiment with A498 renal is over 100 µM; in the experiment with A549 NSCLC, 94.7 µM; with CCRF-CEM leukemia it was over 100 µM; with HCC-2998 colon, 59.3 µM; in the experiment on HCT-116 colon it was over 100 µM; in the experiment with HOP-62 NSCLC, over 100 µM. Besides, the total growth inhibition concentration (TGI) with MALME-3M melanoma, in the experiment with MDA-N, in the experiment with MOLT-4 leukemia, in the experiment on OVCAR-4 ovarian, in the experiment on OVCAR-5 ovarian and in the experiment with RPMI-8226 leukemia was over 100 µM each time. Besides, the TGI with SF-268 CNS, with SNB-75 CNS, in the experiment on SW-620 colon, in the experiment on TK-10 renal and in the experiment on UACC-257 melanoma was over 100 µM throughout.

As for `Nc1ncnc2c1ncn2CC(OCP(=O)(O)O)Oc1ccccc1` (stereo not drawn), the TGI with A498 renal, in the experiment with A549 NSCLC, in the experiment with CCRF-CEM leukemia, in the experiment on HCC-2998 colon, in the experiment on HCT-116 colon and in the experiment on HOP-62 NSCLC was over 100 µM throughout. The TGI with MDA-N, in the experiment with OVCAR-3 ovarian, in the experiment on OVCAR-4 ovarian, in the experiment with OVCAR-5 ovarian, in the experiment on RPMI-8226 leukemia and with SF-268 CNS was over 100 µM each time. The TGI in the experiment on SK-MEL-5 melanoma, in the experiment with SK-OV-3 ovarian, with SNB-75 CNS, in the experiment on SW-620 colon, in the experiment with TK-10 renal and in the experiment on UACC-257 melanoma was over 100 µM throughout.

Take `O=C1c2c(Br)sc(Br)c2[C@H]2NC(=S)O[C@@H]12`: the TGI in the experiment with A498 renal stood at 47.2 µM; in the experiment with A549 NSCLC, 46.8 µM; in the experiment with HCC-2998 colon, 34.8 µM; in the experiment with HCT-116 colon, 24.5 µM; in the experiment on HOP-62 NSCLC, 34.9 µM; with MALME-3M melanoma it was 29.8 µM. Further, the TGI with MDA-N is 30.6 µM; with MOLT-4 leukemia it was 5.31 µM; in the experiment on OVCAR-3 ovarian, 20.4 µM; in the experiment with OVCAR-4 ovarian, 31.9 µM; with OVCAR-5 ovarian, 35.2 µM; in the experiment with RPMI-8226 leukemia it was 45.5 µM. The TGI was determined as 30.2 µM with SF-268 CNS; 29.7 µM with SK-MEL-5 melanoma; 33.3 µM with SK-OV-3 ovarian; 34.7 µM in the experiment on SNB-75 CNS; 11.3 µM in the experiment with SW-620 colon; 57.9 µM in the experiment with TK-10 renal. This compound also showed a TGI in the experiment with UACC-257 melanoma of 31.3 µM.

Consider `CCCNc1[nH]c(C(C)=O)c(N)c1C(=S)Nc1ccccc1`, for which the TGI in the experiment on A498 renal, in the experiment on A549 NSCLC, with CCRF-CEM leukemia, in the experiment on HCC-2998 colon, with HCT-116 colon and with HOP-62 NSCLC was over 100 µM throughout. Besides, the TGI in the experiment with MALME-3M melanoma is 83.9 µM; with MDA-N it was over 100 µM; in the experiment with MOLT-4 leukemia, over 100 µM; with OVCAR-3 ovarian, over 100 µM; with OVCAR-4 ovarian, 74.5 µM; in the experiment with OVCAR-5 ovarian, over 100 µM. Further, the TGI in the experiment on SF-268 CNS is 86.8 µM; in the experiment on SK-MEL-5 melanoma, 52.3 µM; with SK-OV-3 ovarian, over 100 µM; with SNB-75 CNS, over 100 µM; in the experiment on SW-620 colon it was over 100 µM; in the experiment with TK-10 renal, over 100 µM. The concentration for total growth inhibition (TGI) with UACC-257 melanoma was over 100 µM.

On to `OC[C@H]1CC(c2nn[nH]n2)[C@H](O)[C@@H]1O` (stereo partly drawn), for which the concentration for total growth inhibition (TGI) in the experiment with A498 renal, with A549 NSCLC, in the experiment on CCRF-CEM leukemia, with HCC-2998 colon, with HCT-116 colon and with HOP-62 NSCLC was over 100 µM each time. In addition, the TGI with MALME-3M melanoma, in the experiment on MDA-N, in the experiment on MOLT-4 leukemia, in the experiment on OVCAR-3 ovarian, with OVCAR-4 ovarian and with OVCAR-5 ovarian was over 100 µM each time. For the same compound, the TGI with RPMI-8226 leukemia, in the experiment on SF-268 CNS, in the experiment with SK-MEL-5 melanoma, with SK-OV-3 ovarian, in the experiment on SNB-75 CNS and in the experiment with SW-620 colon was over 100 µM throughout. The compound also came in with a TGI in the experiment on TK-10 renal of over 100 µM.

In the case of `COc1cccc(/C=N/n2c(-c3ccccc3)n[nH]c2=O)c1`, the TGI with A498 renal was over 100 µM; in the experiment on A549 NSCLC, over 100 µM; in the experiment on CCRF-CEM leukemia, over 100 µM; in the experiment on HCC-2998 colon it was over 100 µM; in the experiment with HCT-116 colon, over 100 µM; with HOP-62 NSCLC, 63.5 µM. The TGI in the experiment on MALME-3M melanoma, in the experiment with MDA-N, in the experiment with MOLT-4 leukemia, in the experiment on OVCAR-3 ovarian, with OVCAR-4 ovarian and with OVCAR-5 ovarian was over 100 µM in each case. For the same compound, the concentration for total growth inhibition (TGI) with RPMI-8226 leukemia is over 100 µM; in the experiment with SF-268 CNS it was 39.8 µM; in the experiment with SK-OV-3 ovarian it was over 100 µM; with SNB-75 CNS, 93.2 µM; with SW-620 colon, over 100 µM; with UACC-257 melanoma, over 100 µM.
